Results taken from patent US11840535B2, “Alkynyl(hetero)aromatic compound for inhibiting protein kinase activity” (Shenzhen TargetRx, Inc., priority 2018, dated 2023).

Key:
[1] = molecular target: ABL (Homo sapiens (Human), UniProt P00519); experiment: Biochemical kinase analysis, ABL
Method: (§1) Reagents and materials: ABL (ThermoFisher, Cat. No PV3585), ABL^T315I (Thermo Fisher, Cat. No. PR7429B), ATP (Sigma, Cat. No. A7699-1G), DMSO (Sigma, Cat. No. D2650), 96-well plate (Corning, Cat. No. 3365), 384-well plate (Greiner, Cat. No. 784076), buffer solution (Thermo Fisher, Cat. No. PR4876B).
(§2) Compound formulation: The test compounds were dissolved in DMSO to prepare a 20 mM stock solution. Before use, the compounds were diluted in DMSO to 0.1 mM, and diluted into 11 concentrations with a 3-fold gradient. When addition, diluentions of 4-fold final concentration were then made with buffer solution.
(§3) Kinase assay method: After preparing the buffer, the enzyme was mixed with pre-formulated and diluted compounds of different concentrations in duplicate for each concentration, and placed at room temperature for 30 minutes. The corresponding substrate and ATP were added thereto, and reacted at room temperature for 60 minutes (both a negative and a positive control were set). After the reaction, antibody was added for detection, Envision detection was carried out after 60 minutes incubation at room temperature, and data was collected. Data analysis and fitting were made according to XLfit5 software, wherein, A represents IC50≤5 nM, B represents IC50 is 5-50 nM, C represents IC50 is 50-100 nM, D represents IC50>100 nM.

[2] = molecular target: ABL^T315I (Homo sapiens (Human), UniProt P00519, T315I); experiment: Biochemical kinase analysis, ABL T315I
Method: as §1, §2, §3

[3] = tested on: Ba/F3 parental cells; experiment: Cell proliferation analysis, Ba/F3 parental; assay type: cell-based; details: Mus musculus, BaF3, 72 h; 8 ng/ml IL-3, 3 days, CellTiter-Glo
Method: (§4) The inhibitory effect of the example compounds on Ba/F3, Ba/F3 Bcr-Abl T315I cell activity was determined.
(§5) Materials and reagents: RPMI-1640 medium (GIBCO, Catalog No. A10491-01), fetal bovine serum (GIBCO, Catalog No. 10099141), antibiotics (Penicillin-Streptomycin), IL-3 (PeproTech), promycin; cell lines: Ba/F3, Ba/F3 Bcr-Abl T315I (Purchased from American type culture collection, ATCC), live cell detection kit […] (Promega, Catalog No. G7572), 96-well black wall transparent flat bottom cell culture plate (Corning, Catalog No. 3340).
(§6) Test method: 1. Preparation of cell plate: Ba/F3, Ba/F3 Bcr-Abl T315I cells were respectively seeded in 96-well plates, and 8 ng/ml IL-3 was added to the Ba/F3 cells, and the cell plates were placed in a carbon dioxide incubator and cultured overnight. 2. The test compounds were dissolved in DMSO, 9 compound concentrations were made with a 3.16-fold gradient dilution in triplicate. 3. Treatment of the cells with compounds: The compounds were transferred to the cell plate with a starting concentration of 10 μM. The cell plate was placed in a carbon dioxide incubator for 3 days. 4. Detection: CellTiter-Glo agent was added to the cell plate, and incubated at room temperature for 30 minutes to stabilize the luminous signal. PerkinElmer Envision multi-label analyzer was used for reading, wherein A represents […], B represents IC50 is 10-20 nM, C represents IC50 is 20-50 nM, D represents IC50 is 50-1000 nM, E represents IC50>1000 nM.

[4] = tested on: Ba/F3 Bcr-Abl T315I cells; experiment: Cell proliferation analysis, Ba/F3 Bcr-Abl T315I; assay type: cell-based; details: for IC50: Mus musculus, BaF3, 72 h, 3 days, CellTiter-Glo; for Selectivity [Ba/F3 (parental/Bcr-Abl ^T315I)]: ratio of Ba/F3 parental to Ba/F3 Bcr-Abl T315I
Method: as §4, §5, §6

Compound	IC50 [1]	IC50 [2]	IC50 [4]	IC50 [3]	Selectivity [Ba/F3 (parental/Bcr-Abl ^T315I)] [4]
CCc1nc(C#Cc2cc(C(=O)Nc3ccc(CN4CCN(C)CC4)c(C(F)(F)F)c3)ccc2C)c2c(N)nccn12 [Example 1, 3-((8-amino-3-ethylimidazo[1,5-a]pyrazin-1-yl)ethynyl)-4-methyl-N-(4-((4-methylpiperazin-1-yl)methyl)-3-(trifluoromethyl)phenyl)benzamide]	≤ 5 nM	≤ 5 nM	20 to 50 nM	> 1000 nM	50~100
CCc1nc(C#Cc2cc(C(=O)Nc3cccc(C(F)(F)F)c3)ccc2C)c2c(N)nccn12 [Example 2, 3-((8-amino-3-ethylimidazo[1,5-a]pyrazin-1-yl)ethynyl)-4-methyl-N-(3-(trifluoromethyl)phenyl)benzamide]	5 to 50 nM	50 to 100 nM	–	–	–
Cc1ccc(C(=O)Nc2ccc(CN3CCN(C)CC3)c(C(F)(F)F)c2)cc1C#Cc1nc(C)n2ccnc(N)c12 [Example 3, 3-((8-amino-3-methylimidazo[1,5-a]pyrazin-1-yl)ethynyl)-4-methyl-N-(4-((4-methylpiperazin-1-yl)methyl)-3-(trifluoromethyl)phenyl)benzamide]	≤ 5 nM	≤ 5 nM	–	–	–
Cc1ccc(C(=O)Nc2ccc(CN3CCN(C)CC3)c(C(F)(F)F)c2)cc1C#Cc1nc(C(C)C)n2ccnc(N)c12 [Example 4, 3-((8-amino-3-isopropylimidazo[1,5-a]pyrazin-1-yl)ethynyl)-4-methyl-N-(4-((4-methylpiperazin-1-yl)methyl)-3-(trifluoromethyl)phenyl)benzamide]	≤ 5 nM	≤ 5 nM	50 to 1000 nM	> 1000 nM	0~50
CCn1cc(C#Cc2cc(C(=O)Nc3cccc(C(F)(F)F)n3)ccc2C)c2c(N)ncnc21 [Example 7, 3-((4-amino-7-ethyl-7H-pyrrolo[2,3-d]pyrimidin-5-yl)ethynyl)-4-methyl-N-(6-(trifluoromethyl)pyridin-2-yl)benzamide]	≤ 5 nM	5 to 50 nM	–	–	–
CCn1cc(C#Cc2cccc(C(=O)Nc3cccc(C(F)(F)F)c3)c2)c2c(N)ncnc21 [Example 8, 3-((4-amino-7-ethyl-7H-pyrrolo[2,3-d]pyrimidin-5-yl)ethynyl)-N-(3-(trifluoromethyl)phenyl)benzamide]	≤ 5 nM	≤ 5 nM	–	–	–
CCn1cc(C#Cc2cc(C(=O)Nc3ccc(CN(C)C)c(C(F)(F)F)c3)ccc2C)c2c(N)ncnc21 [Example 9, 3-((4-amino-7-ethyl-7H-pyrrolo[2,3-d]pyrimidin-5-yl)ethynyl)-N-(4-((dimethylamino)methyl)-3-(trifluoromethyl)phenyl)-4-methylbenzamide]	≤ 5 nM	≤ 5 nM	10 to 20 nM	> 1000 nM	150~500
CCn1cc(C#Cc2cc(C(=O)Nc3cc(-n4cnc(C)c4)cc(C(F)(F)F)c3)ccc2C)c2c(N)ncnc21 [Example 10, 3-((4-amino-7-ethyl-7H-pyrrolo[2,3-d]pyrimidin-5-yl)ethynyl)-4-methyl-N-(3-(4-methyl-1H-imidazol-1-yl)-5-(trifluoromethyl)phenyl)benzamide]	5 to 50 nM	5 to 50 nM	10 to 20 nM	> 1000 nM	150~500

Second part, led by results:

IC50 [1]	IC50 [2]	IC50 [4]	Compound	IC50 [3]	Selectivity [Ba/F3 (parental/Bcr-Abl ^T315I)] [4]
≤ 5 nM	5 to 50 nM	10 to 20 nM	Cc1cn(-c2cc(NC(=O)c3ccc(C)c(C#Cc4cn(C)c5ncnc(N)c45)c3)cc(C(F)(F)F)c2)cn1 [Example 11, 3-((4-amino-7-methyl-7H-pyrrolo[2,3-d]pyrimidin-5-yl)ethynyl)-4-methyl-N-(3-(4-methyl-1H-imidazol-1-yl)-5-(trifluoromethyl)phenyl)benzamide]	> 1000 nM	>500
5 to 50 nM	5 to 50 nM	20 to 50 nM	Cc1ccc(C(=O)Nc2cccc(C(F)(F)F)c2)cc1C#Cc1cn(C(C)C)c2ncnc(N)c12 [Example 13, 3-((4-amino-7-isopropyl-7H-pyrrolo[2,3-d]pyrimidin-5-yl)ethynyl)-4-methyl-N-(3-(trifluoromethyl)phenyl)benzamide]	> 1000 nM	100~150
≤ 5 nM	≤ 5 nM	20 to 50 nM	Cc1ccc(C(=O)Nc2cccc(C(F)(F)F)c2)cc1C#Cc1cn(C)c2ncnc(N)c12 [Example 14, 3-((4-amino-7-methyl-7H-pyrrolo[2,3-d]pyrimidin-5-yl)ethynyl)-4-methyl-N-(3-(trifluoromethyl)phenyl)benzamide]	> 1000 nM	50~100
≤ 5 nM	≤ 5 nM	≤ 10 nM	Cc1ccc(C(=O)Nc2ccc(CN3CCN(C)CC3)c(C(F)(F)F)c2)cc1C#Cc1cn(C)c2ncnc(N)c12 [Example 16, 3-((4-amino-7-methyl-7H-pyrrolo[2,3-d]pyrimidin-5-yl)ethynyl)-4-methyl-N-(4-((4-methylpiperazin-1-yl)methyl)-3-(trifluoromethyl)phenyl)benzamide]	> 1000 nM	150~500
≤ 5 nM	≤ 5 nM	≤ 10 nM	Cc1ccc(NC(=O)c2ccc(CN3CCN(C)CC3)c(C(F)(F)F)c2)cc1C#Cc1cn(C)c2ncnc(N)c12 [Example 19, N-(3-((4-amino-7-methyl-7H-pyrrolo[2,3-d]pyrimidin-5-yl)ethynyl)-4-methylphenyl)-4-((4-methylpiperazin-1-yl)methyl)-3-(trifluoromethyl)benzamide]	> 1000 nM	150~500
5 to 50 nM	50 to 100 nM	–	Cc1ccc(NC(=O)c2ccc(C)c(C(F)(F)F)c2)cc1C#Cc1cn(C2CCCC2)c2ncnc(N)c12 [Example 20, N-(3-((4-amino-7-cyclopentyl-7H-pyrrolo[2,3-d]pyrimidin-5-yl)ethynyl)-4-methylphenyl)-4-methyl-3-(trifluoromethyl)benzamide]	–	–
≤ 5 nM	5 to 50 nM	≤ 10 nM	CCn1cc(C#Cc2cc(NC(=O)c3cc(-n4cnc(C)c4)cc(C(F)(F)F)c3)ccc2C)c2c(N)ncnc21 [Example 21, N-(3-((4-amino-7-ethyl-7H-pyrrolo[2,3-d]pyrimidin-5-yl)ethynyl)-4-methylphenyl)-3-(4-methyl-1H-imidazol-1-yl)-5-(trifluoromethyl)benzamide]	50 to 1000 nM	50~100
≤ 5 nM	5 to 50 nM	–	Cc1ccc(C(=O)Nc2cccc(C(F)(F)F)c2)cc1C#Cc1cn([C@H]2CC[C@H](O)CC2)c2ncnc(N)c12 [Example 23, 3-((4-amino-7-((1r,4r)-4-hydroxycyclohexyl)-7H-pyrrolo[2,3-d]pyrimidin-5-yl)ethynyl)-4-methyl-N-(3-(trifluoromethyl)phenyl)benzamide]	–	–
≤ 5 nM	5 to 50 nM	10 to 20 nM	Cc1ccc(C(=O)Nc2ccc(C)c(C(F)(F)F)c2)cc1C#Cc1cn([C@H]2CC[C@H](O)CC2)c2ncnc(N)c12 [Example 24, 3-((4-amino-7-((1r,4r)-4-hydroxycyclohexyl)-7H-pyrrolo[2,3-d]pyrimidin-5-yl)ethynyl)-4-methyl-N-(4-methyl-3-(trifluoromethyl)phenyl)benzamide]	> 1000 nM	150~500
